The record followed here is US20090215894A1, “INHIBITION OF PHOSPHATASE ACTIVITY OF SOLUBLE EPOXIDE HYDROLASE AMINO TERMINUS AND USES THEREOF” (REGENTS OF THE UNIVERSITY OF CALIFORNIA, priority 2005, published 2009).

The target in one data set is T1, Nterm-phos (Homo sapiens, UniProt P34913).
T1 construct: use of a truncated enzyme from crude extract versus purified full-length human sEH; made in house; host or cells: baculovirus expression system (insect cells)
T1 sequence (P34913 1-555): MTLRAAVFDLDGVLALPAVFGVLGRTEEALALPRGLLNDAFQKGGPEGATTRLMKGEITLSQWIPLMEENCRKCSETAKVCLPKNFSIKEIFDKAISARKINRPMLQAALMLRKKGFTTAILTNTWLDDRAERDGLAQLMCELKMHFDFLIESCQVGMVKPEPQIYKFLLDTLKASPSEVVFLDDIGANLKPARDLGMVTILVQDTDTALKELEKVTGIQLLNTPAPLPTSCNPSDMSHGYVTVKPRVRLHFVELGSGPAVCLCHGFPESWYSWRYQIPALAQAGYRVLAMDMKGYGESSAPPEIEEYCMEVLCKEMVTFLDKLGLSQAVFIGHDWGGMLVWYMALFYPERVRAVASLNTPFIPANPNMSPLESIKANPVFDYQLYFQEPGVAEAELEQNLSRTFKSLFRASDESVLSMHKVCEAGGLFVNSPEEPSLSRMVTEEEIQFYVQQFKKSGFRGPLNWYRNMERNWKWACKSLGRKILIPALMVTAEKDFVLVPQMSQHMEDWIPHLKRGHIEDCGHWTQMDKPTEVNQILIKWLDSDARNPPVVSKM
Briefly: Sulfates tested as substrates for Nterm-phos (LC-MS of alcohol or diol). Particulars: enzyme 400 nM, compound 100 μM, one hour. The data set is classed as biochemical. The method, then:
To understand the mode of action of these new inhibitors, compounds 1 and 2 were tested as substrates for the Nterm-phos. Enzyme was incubated (400 nM) with the compounds (100 μM) for an hour and analyzed the mixture by LC-MS to detect any alcohol or diol formed (Newman et al., Proc. Natl. Acad. Sci. USA. 100, 1558-1563 (2003)). Formation of any alcohol or diol was not detected.

For another data set, the target named is T2, truncated human sEH (Homo sapiens, UniProt P34913).
T2 construct: C-terminal region (Mel^237-Met^554) of human sEH was amplified by PCR; made in house; host or cells: baculovirus (pFastBac1) in high-5 Trichoplusia ni cells; 10,000 g supernatant used as crude extract
T2 sequence (P34913 237-555 limits assumed): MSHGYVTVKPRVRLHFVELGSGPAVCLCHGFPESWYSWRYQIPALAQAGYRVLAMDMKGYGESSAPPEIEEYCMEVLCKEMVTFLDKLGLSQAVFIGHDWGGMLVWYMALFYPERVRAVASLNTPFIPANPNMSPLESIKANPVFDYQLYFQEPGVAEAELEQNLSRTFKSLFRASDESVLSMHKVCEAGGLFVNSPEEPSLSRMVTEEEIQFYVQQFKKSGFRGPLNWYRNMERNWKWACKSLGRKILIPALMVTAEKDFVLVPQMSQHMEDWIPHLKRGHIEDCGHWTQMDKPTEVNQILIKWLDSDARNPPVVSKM
Briefly: EH activity inhibition, N-terminally truncated human sEH. It is filed as biochemical. An excerpt:
(§1) Recombinant human sEH (HsEH) was produced in a baculovirus expression system (Beetham et al., Arch. Biochem. Biophys. 305, 197-201 (1993)) and purified by affinity chromatography (Wixtrom et al., Anal. Biochem. 169, 71-80 (1983)). […] No detectable esterase or glutathione transferase activities were observed. Recombinant mouse-eared cress sEH was produced in a baculovirus expression system and purified as described (Morisseau et al., Arch. Biochem. Biophys. 378, 321-332 (2000)). The nucleotide sequence of the C-terminal region (Mel^[…]) of human sEH was amplified by PCR using [NT] as forward primer and [NT] as reverse primer. The resulting band was gel purified and restricted with EcoR1 and Sal1, which were introduced by the primers, and the restricted fragment sub-cloned into the multiple cloning site of the pFastBac1 vector (Invitrogen). After verification of the obtained nucleotide sequence, the recombinant pFastBac1 plasmid was introduced in competent DH10bac cells leading to the formation of a recombinant plasmid containing the DNA insert. The isolated recombinant plasmid was used to produce recombinant baculovirus in Sf21 cells following procedures recommended by the manufacturer. The truncated HsEH was produced in high-5 Trichloplusia ni cell cultures following published procedures (Beetham et al., Arch. Biochem. Biophys. 305, 197-201 (1993)). Seventy-two hours post infection, the cells were collected by centrifugation (2,000 g×20 min). The cell pellet was then suspended in a sodium phosphate buffer (76 mM, pH 7.4) containing 1 mM of phenylmethylsulfonyl fluoride, EDTA and dithiothretol. The suspension was then homogenized by Polytron at 9,000 rpm for 1 min and centrifuged (10,000 g×20 min). The resulting supernatant was frozen at -80° C. until used for experiments. […] Protein concentrations were quantified with the Pierce BCA assay (Pierce; Rockford, Ill.) using Fraction V bovine serum albumin (BSA) as the calibrating standard. Nterm-Phos activity was measured in Bis-Tris HCl buffer (25 mM PH 7.0) containing 0.1 mg/mL of Fraction V BSA and 1 mM of MgCl2 (buffer A) at 30° C. […] APHP activity was measured as described using 7 as substrate (Newman et al., Proc. Natl. Acad. Sci. USA. 100, 1558-1563 (2003)). Compounds 34-37 were incubated separately with the enzyme for a given time, and then the reaction was stopped by the addition of 100 μL of methanol. The reaction products for compounds 34-37 were extracted with 500 μL of ethyl acetate. The quantification of the alcohol products was performed by LC/MS analysis of 2 μL of the organic phase. […] Biochem. 231, 188-200 (1995)). This latter substrate was also used to measure the activity of the cress sEH and the truncated human sEH.

For a further data set, the system named is cress sEH. Briefly: EH activity inhibition, cress sEH. It is filed as biochemical, mouse-eared cress.
Excerpt: as §1

The target in data set [1] is T3, Human sEH Cterm-EH activity (Homo sapiens, UniProt P34913).
T3 construct: use of a truncated enzyme from crude extract versus purified full-length human sEH; made in house; host or cells: baculovirus expression system (insect cells)
T3 sequence (P34913 1-555): T1 sequence (P34913 1-555)
Briefly: Cterm-EH dissociation constant with [3H]-trans-1,3-diphenylpropene oxide. The data set is classed as biochemical. On the procedure: For the Cterm-EH activity, dissociation constants were determined using racemic [^3H]-trans-1,3-diphenylpropene oxide as substrate. […] Velocity was measured as described (Borhan et al., Anal. Biochem. 231, 188-200 (1995)). […] Results are mean±standard deviation of three separate determination of KI.

A further data set deals with T4, full length human sEH (Homo sapiens, UniProt P34913).
T4 construct: use of a truncated enzyme from crude extract versus purified full-length human sEH; made in house; host or cells: baculovirus expression system (insect cells)
T4 sequence (P34913 1-555): T1 sequence (P34913 1-555)
In words: EH activity inhibition, full length human sEH. It is filed as biochemical. The method, then:
Nterm-Phos activity was measured in Bis-Tris HCl buffer (25 mM PH 7.0) containing 0.1 mg/mL of Fraction V BSA and 1 mM of MgCl2 (buffer A) at 30° C. […] APHP activity was measured as described using 7 as substrate (Newman et al., Proc. Natl. Acad. Sci. USA. 100, 1558-1563 (2003)). Compounds 34-37 were incubated separately with the enzyme for a given time, and then the reaction was stopped by the addition of 100 μL of methanol. The reaction products for compounds 34-37 were extracted with 500 μL of ethyl acetate. The quantification of the alcohol products was performed by LC/MS analysis of 2 μL of the organic phase. The Cterm-EH activity was measured as described previously in buffer A, using either racemic 4-nitrophenyl-trans-2,3-epoxy-3-phenylpropyl carbonate (Dietze et al., Anal. Biochem. 216, 176-187 (1994)) or racemic [^3H]-trans-1,3-diphenylpropene oxide as substrate (Borhan et al., Anal. Biochem. 231, 188-200 (1995)). This latter substrate was also used to measure the activity of the cress sEH and the truncated human sEH.

Data set [2] deals with T3, Human sEH Cterm-EH activity. Briefly: Cterm-EH inhibition IC50 with 4-nitrophenyl-trans-2,3-epoxy-3-phenylpropyl carbonate. It is filed as biochemical. Particulars: substrate 50 μM, 5 min preincubation, 30° C.; read-out: IC50.

In the case of `CCCCCCCCC(CCCCCCCCC(=O)O)OS(=O)(=O)O` (stereo not drawn) [Compound 1, 10-Sulfonooxy-octadecanoic acid], at Nterm-phos, the “Formation of any alcohol or diol” value was “not detected”. In addition, the results for the inhibition at 100 µM at truncated human sEH and on full length human sEH were 89 ± 3% and 86 ± 2%, respectively. Moreover, the Inhibition (usually the relative decrease from the control value, in per cent) at 100 μM (%) with cress sEH is recorded as <2%. The “KI at Cterm-EH relative to KI at Nterm-Phos” value in data set [1] is on record as “roughly 100 fold”. Also, the Ki (in general, a measure of affinity in units of concentration, obtained from inhibition or displacement) in data set [1] (non-competitive inhibition, n=3) was 31 ± 2 µM. Besides, the IC50 (commonly the point on the concentration scale where inhibition reaches its midpoint) in data set [2] is 28 ± 2 µM.

As for `CCCCCCCCC(OS(=O)(=O)O)C(O)CCCCCCCC(=O)O` (stereo not drawn) [Compound 2, 9/10-Sulfonooxy-hydroxy-octadecanoic acid], at Nterm-phos, the “Formation of any alcohol or diol” value is recorded as “not detected”. The inhibition (usually the relative decrease from the control value, in per cent) at 100 µM on truncated human sEH was determined as 58 ± 2%; against full length human sEH it was 54 ± 3%. Further, the “Inhibition at 100 μM (%)” value in the data set with cress sEH is given as <2%. Also, in data set [2], the IC50 is 90 ± 5 µM.

On to `CCCCCCCCCC(CCCCCCCC)OS(=O)(=O)O` (stereo not drawn) [Compound 3, 9-Octadecanyl-sulfate], for which the inhibition at 100 µM against truncated human sEH was 67 ± 3%; against full length human sEH, 72 ± 2%. In addition, the “Inhibition at 100 μM (%)” value in the data set on cress sEH was <2%. In addition, the IC50 in data set [2] was determined as 21 ± 5 µM.

Turning to `CCCCCCC(C/C=C\CCCCCCCC(=O)O)OS(=O)(=O)O` (stereo not drawn) [Compound 4, 12-Sulfonoxy-cis-9-octadecenoic acid], the inhibition at 100 µM came out at 16 ± 2% on truncated human sEH and 26 ± 3% on full length human sEH. Also, the “Inhibition at 100 μM (%)” value in the data set with cress sEH is reported as <2%. Also, the IC50 in data set [2] was > 100 µM.

Turning to `CCCCCCC(C/C=C/CCCCCCCC(=O)O)OS(=O)(=O)O` (stereo not drawn) [Compound 5, 12-Sulfonoxy-trans-9-octadecenoic acid], the inhibition at 100 µM on truncated human sEH worked out at 44 ± 4%; against full length human sEH, 68 ± 2%. Moreover, the “Inhibition at 100 μM (%)” value in the data set with cress sEH is recorded as <2%. In data set [2], the IC50 is 16 ± 3 µM.
